Drawing on patent US20050014942A1, “Amide derivatives and drugs” (priority 2001, published 2005), this text covers concentration and inhibition for seven compounds.

Where a name gives a salt, the structure may show the parent alone.

Data set [1] is described as follows: Measurement of concentration of compound in rat plasma. The class given is in vivo. To be noted: oral 10 mg/kg; for concentration at 0.25 h: after 0.25 hours; for concentration at 1 h: after 1 hour; for concentration at 4 h: after 4 hours. The protocol: Each of the test compounds was dissolved or suspended in methyl cellulose and the resulting solution or suspension was orally administered to rats at a dosage of 10 mg/kg and blood was collected after 0.25 hours, 1 hour and 4 hours. The concentration in plasma in each of the compounds was measured by HPLC.

Data set [2] concerns collagen production induced by TGF-β (NHDF cells). As to the kind of experiment: Inhibitory effect on collagen production induced by TGF-β, [3H] proline uptake (NHDF cells). The class given is cell-based, human. As to conditions: Homo sapiens, NHDF, TGF-β1 3 ng/ml. Here is the method: As an index of collagen production, the uptake of [^3H] proline was measured.
Using a 96-well microplate, normal human skin derived fibroblast (NHDF, 10^4/well) or human embryonic lung fibroblast (TIG-3, 10^4/well) were cultured in a 10% fetal calf serum (FCS)-containing Dulbecco's modified Eagle medium (DMEM) for one day. After removing the culture supernatant, the cells were washed once with a 0.1% bovine serum albumin (BSA)-containing DMEM medium and then cultured in the 0.1% bovine serum albumin (BSA)-containing DMEM medium for one day. After adding each of the test compounds in each concentration (1, 3, 10 μM), the cells were cultured and, after adding TGF-β1 (3 ng/ml) and [^3H] proline (18.5 kBq/well), the cells were further cultured for additional one day.
After removing the culture supernatant, the cells were washed twice with a phosphate buffer solution (PBS) and dissolved with 0.3M NaOH and 1% sodium dodecylsulfate (SDS), and then each protein fraction was precipitated with trichloroacetic acid (TCA) After the precipitate was filtered through a glass filter (GF/B) and washed, the quantity of [^3H] proline on the glass filter was measured by a liquid scintillation counter. The number of cells was measured by a cell growth measuring kit (XTT, Roche) and the uptake of [^3H] proline was corrected by the number of cells. Inhibitory ratio was calculated as compared with the case where a difference between the uptake of [^3H] proline with or without TGF-β1.

In data set [1], `Cn1c(-c2ccccc2)c(/C=C/C(=O)N2CCC(n3c(=O)[nH]c4ccccc43)CC2)c2cccnc21` [Example 29, 1-{1-[(2E)-3-(1-methyl-2-phenyl-1H-pyrrolo[2,3-b]pyridin-3-yl)prop-2-enoyl]piperidin-4-yl}-1,3-dihydro-2H-benzimidazol-2-one hydrochloride] came in with a concentration at 0.25 h of 330 to 940 ng/mL, a concentration at 1 h of 280 to 1100 ng/mL and a concentration at 4 h of 170 to 710 ng/mL. In addition, in data set [2], the inhibition at 1 µM stood at 64%, the inhibition at 3 µM was found to be 72% and the inhibition at 10 µM was 123%.

For the compound `Cc1ccc2c(c1)c(C(=O)N1CCN(c3cnc(C(=O)NCCc4scnc4C)cn3)CC1)c(-c1ccccc1)n2C` [Example 5, 5-{4-[(1,5-dimethyl-2-phenyl-1H-indol-3-yl)carbonyl]piperazin-1-yl}-N-[2-(4-methyl-1,3-thiazol-5-yl)ethyl]pyrazine-2-carboxamide trihydrochloride], in data set [1], the concentration at 0.25 h lay in the range of 1400 to 2300 ng/mL, the concentration at 1 h lay in the range of 520 to 720 ng/mL and the concentration at 4 h fell in the range of 87 to 160 ng/mL. In data set [2], the inhibition at 1 µM was found to be 40%, the inhibition at 3 µM came out at 43% and the inhibition at 10 µM is 88%.

On to `Cn1c(-c2ccccc2)c(/C=C/C(=O)N2CCc3ccccc3C2)c2cccnc21` [Example 104, 2-[(2E)-3-(1-methyl-2-phenyl-1H-pyrrolo[2,3-b]pyridin-3-yl)prop-2-enoyl]-1,2,3,4-tetrahydroisoquinoline hydrochloride], for which, in data set [1], the concentration at 0.25 h was in the range of 14 to 19 ng/mL, the concentration at 1 h is 44 to 71 ng/mL and the concentration at 4 h fell in the range of 25 to 32 ng/mL.

In data set [1], `CO[C@H]1Cc2ccccc2[C@H]1NC(=O)/C=C/c1c(-c2ccccc2)n(C)c2ncccc12` [Example 4, (2E)-N-[(1R,2S)-2-methoxy-2,3-dihydro-1H-inden-1-yl]-3-(1-methyl-2-phenyl-1H-pyrrolo[2,3-b]pyridin-3-yl)acrylamide hydrochloride] showed a concentration at 0.25 h of 390 to 500 ng/mL, a concentration at 1 h of 490 to 590 ng/mL and a concentration at 4 h of 180 to 290 ng/mL. For the same compound, in data set [2], the inhibition at 1 µM amounted to 41%, the inhibition at 3 µM was determined as 70% and the inhibition at 10 µM stood at 138%.

In the case of `Cc1ncsc1CCNC(=O)c1cnc(N2CCN(C(=O)c3c(-c4ccccc4)n(C)c4ncccc34)CC2)cn1` [Example 27, 5-{4-[(1-methyl-2-phenyl-1H-pyrrolo[2,3-b]pyridin-3-yl)carbonyl]piperazin-1-yl}-N-[2-(4-methyl-1,3-thiazol-5-yl)ethyl]pyrazine-2-carboxamide dihydrochloride], in data set [1], the concentration at 0.25 h fell in the range of 2400 to 4100 ng/mL and the concentration at 1 h lay in the range of 1500 to 1900 ng/mL. In addition, in data set [2], the inhibition at 1 µM came out at 25%, the inhibition at 3 µM is 35% and the inhibition at 10 µM turned out to be 42%.

With `Cc1ccc2c(c1)c(C(=O)N1CCN(c3ccc(-c4nnn(C)n4)cn3)CC1)c(-c1ccccc1)n2C` [Example 26, 1,5-dimethyl-2-phenyl-3-[{4-[5-(2-methyl-2H-tetrazol-5-yl)pyridin-2-yl]piperazin-1-yl}carbonyl]-1H-indole], in data set [1], the concentration at 0.25 h lay within 230 to 800 ng/mL, the concentration at 1 h lay within 130 to 300 ng/mL and the concentration at 4 h was 0 to 92 ng/mL.

For `CC1c2cc3c(cc2CCN1C(=O)/C=C/c1c(-c2ccccc2)n(C)c2ncccc12)OCO3` (centres unmarked) [Example 28, 5-methyl-6-[(2E)-3-(1-methyl-2-phenyl-1H-pyrrolo[2,3-b]pyridin-3-yl)prop-2-enoyl]-5,6,7,8-tetrahydro[1,3]dioxolo[4,5-g]isoquinoline hydrochloride], in data set [1], the concentration at 0.25 h was 71 to 170 ng/mL, the concentration at 1 h lay within 400 to 550 ng/mL and the concentration at 4 h lay in the range of 320 to 460 ng/mL. Besides, in data set [2], the inhibition at 1 µM was 31%, the inhibition at 3 µM came out at 40% and the inhibition at 10 µM turned out to be 92%.
